How the values were obtained:
Par-4 = conditions: mouse embryonic fibroblast (MEF) cells; cited from earlier work
[1] = tested on: tumor cell lines of renal cancer; test: In vitro 3D combination study, clonogenic assay, both cell lines; assay type: cell-based; conditions: Homo sapiens, A498; compound alone, colony formation in soft agar, range over RXF 1183L and RXF A-498; read-out: Relative IC50, single agent
Description: The objective of this study was to assess anti-tumor efficacy of ketorolac in combination with sunitinib in a 5×5 matrix combination format against tumor cell lines of renal cancer using a clonogenic assay with image analysis as read-out.
The clonogenic assay was carried out in a 96 well plate format using ultra low attachment plates. For each test cells were prepared as described above, and assay plates were prepared as follows: each test well contained a layer of semi-solid medium with tumor cells (50 μl), and a second layer of medium supernatant with or without test compounds (100 μl). The cell layer consisted of 3×10^3 to 1×10^4 tumor cells per well, which were seeded in 50 μl/well cell culture medium (IMDM, supplemented with 20% (v/v) fetal calf serum, 0.01% (w/v) gentamicin, and 0.4% (w/v) agar). The soft agar layer was immediately covered with 90 μl of the same culture medium without agar. After 24 h the test compounds were added after serial dilution in IMDM and transfer in cell culture medium, and left on the cells for the duration of the experiment (continuous exposure, 100 μL total drug overlay). Every plate included six untreated control wells and drug-treated groups in a layout as shown above. […] At the time of maximum colony formation, counts were performed with an automatic image analysis system (Celllnsight NXT, Thermo Scientific). […]

A498 cells = test: In vivo animal efficacy study, subcutaneous A498 tumor fragments; parameters: species or system female athymic nude mice; conditions: for Mean Tumor Volume / Tumor Growth Inhibition (% TGI): Sunitinib 20 mg/kg p.o. q.d. × 21 (G2)
Description: 10 Healthy female athymic nude mice were recruited for the donor cell inoculation. Animals were subcutaneously injected at flank region with 10 million A498 cells suspended in 200 μl of media and matrigel. Animals were monitored for solid tumor growth. […] Tumors were fragmented in to ˜30 mg size. […] [table] The tumor sizes were measured weekly twice from the date of tumor appearance till the end of the experiment. Tumor size was measured by digital vernier caliper (MITUTOYO) by measuring length (L=longest axis) and width (W=shortest axis). Tumor Volume was calculated using the formula: […] Form the tumor volume data mean tumor volume and % tumor growth inhibition (% TGI) were calculated (SEM=standard error of mean).

| IC50 [1] [µM] | Structure (SMILES) | PAR-4 secretion (Par-4) | Mean Tumor Volume (A498 cells; day 1) [mm^3] | Tumor Growth Inhibition (% TGI) (A498 cells; day 1) [%] | Mean Tumor Volume (A498 cells; day 6) [mm^3] | Tumor Growth Inhibition (% TGI) (A498 cells; day 6) [%] | Mean Tumor Volume (A498 cells; day 9) [mm^3] | Tumor Growth Inhibition (% TGI) (A498 cells; day 9) [%] | Mean Tumor Volume (A498 cells; day 13) [mm^3] | Tumor Growth Inhibition (% TGI) (A498 cells; day 13) [%] | Mean Tumor Volume (A498 cells; day 16) [mm^3] | Tumor Growth Inhibition (% TGI) (A498 cells; day 16) [%] | Mean Tumor Volume (A498 cells; day 20) [mm^3] | Tumor Growth Inhibition (% TGI) (A498 cells; day 20) [%] | Maximum tumor inhibition (A498 cells; Sunitinib alone at a dose of 20 mg/kg) [%] |
| --- | --- | --- | --- | --- | --- | --- | --- | --- | --- | --- | --- | --- | --- | --- | --- |
|  | COc1ccc(C2=N[C@@H](c3ccc(Cl)cc3)[C@@H](c3ccc(Cl)cc3)N2C(=O)N2CCNC(=O)C2)c(OC(C)C)c1 [Nutlin-3a] | stimulated PAR-4 secretion at micromolar levels |  |  |  |  |  |  |  |  |  |  |  |  |  |
| 1.5 to 4.59 | CCN(CC)CCNC(=O)c1c(C)[nH]c(/C=C2\C(=O)Nc3ccc(F)cc32)c1C [Sunitinib] |  | 145.40 | 1.47 | 174.90 | 47.31 | 261.95 | 43.52 | 340.62 | 44.80 | 448.05 | 53.39 | 630.25 | 50.78 | 51 |

Source: US10391080B2, “Ketorolac for the treatment of cancer” (Cipla Limited, priority 2016, dated 2019)
